In general, pIC50 refers to −log10 of the IC50, conventionally taken in molar units. A high value points to a low IC50. By inhibition is commonly meant how much of the control response was suppressed.

pIC50: −log10 of the molar value. Activity calls are given as the source filed them. The rule behind the calls is not given here. Bounds are passed on as bounds.

For data set [1], the target named is Acetylcholinesterase (Electrophorus electricus, UniProt O42275). Nature of the data set: Inhibition of electric eel AChE using acetylthiocholine chloride as substrate after 15 mins by Ellman spectrophotometric method. In general terms: Ellman's reagent forms a yellow product with free thiols.
The nature of data set [2]: Antioxidant activity assessed as Trolox equivalent per microM of compound after 15 mins by oxygen radical absorbance capacity fluorescein assay. The class given is physicochemical. The note with it: 0.25 h.
Data set [3] is described as follows: Selectivity index, ratio of IC50 for equine serum BChE to IC50 for electric eel AChE.
Data set [4] has as its target Cholinesterase (Equus caballus, UniProt P81908). Nature of the data set: Inhibition of equine serum BChE using acetylthiocholine chloride as substrate after 15 mins by Ellman spectrophotometric method.
Data set [5] deals with Amyloid-beta precursor protein (Homo sapiens) (UniProt P05067). Nature of the data set: Inhibition of self-induced Abeta(1 to 42) (unknown origin) aggregation at 25 uM after 24 hrs by Thioflavin T-based fluorometric assay.
Data set [6] has as its target Acetylcholinesterase (Homo sapiens, UniProt P22303). The experiment in a line: Inhibition of human erythrocyte AChE using acetylthiocholine chloride as substrate after 15 mins by Ellman spectrophotometric method.
In data set [7] the target is Acetylcholinesterase (Electrophorus electricus) (UniProt O42275). Nature of the data set: Mixed-type inhibition of electric eel AChE using acetylthiocholine chloride as substrate after 15 mins by Lineweaver-Burk plot method.
In data set [8] the test system is PC-12. The experiment in a line: Protective activity against H2O2-induced rat PC12 cell injury assessed as cell viability incubated at 5 uM for 3 hrs before H2O2 addition measured after 5 hrs by MTT assay relative to untreated control. The class given is functional. As to conditions: read-out: Activity. A general note: Tetrazolium assays rely on reduction of a dye to a coloured formazan, in cell work by metabolically active cells.

The nature of data set [9]: Permeability of the compound in DMSO-PBS/EtOH solution at 100 ug/ml by PAMPA. The note with it: read-out: permeability. Format: ADME. (In general: In PAMPA a lipid-coated filter parts donor from acceptor wells.)

Sequence of Cholinesterase (P81908 whole entry): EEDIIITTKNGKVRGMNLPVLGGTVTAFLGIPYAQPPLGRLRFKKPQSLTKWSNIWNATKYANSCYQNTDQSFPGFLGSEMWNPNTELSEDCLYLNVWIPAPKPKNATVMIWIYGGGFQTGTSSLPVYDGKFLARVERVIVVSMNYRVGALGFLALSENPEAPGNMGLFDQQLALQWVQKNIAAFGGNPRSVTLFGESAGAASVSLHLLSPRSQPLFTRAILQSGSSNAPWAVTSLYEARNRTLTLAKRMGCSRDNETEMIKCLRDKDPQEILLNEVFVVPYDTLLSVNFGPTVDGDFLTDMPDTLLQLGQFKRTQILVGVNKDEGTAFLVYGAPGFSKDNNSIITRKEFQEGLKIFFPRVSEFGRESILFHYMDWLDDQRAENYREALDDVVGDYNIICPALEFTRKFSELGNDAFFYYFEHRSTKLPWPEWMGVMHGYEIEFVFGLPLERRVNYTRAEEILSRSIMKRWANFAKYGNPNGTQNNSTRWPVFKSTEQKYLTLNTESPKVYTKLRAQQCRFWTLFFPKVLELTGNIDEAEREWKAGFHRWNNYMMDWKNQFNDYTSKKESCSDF
Sequence of Acetylcholinesterase (Homo sapiens, UniProt P22303) (P22303 whole entry): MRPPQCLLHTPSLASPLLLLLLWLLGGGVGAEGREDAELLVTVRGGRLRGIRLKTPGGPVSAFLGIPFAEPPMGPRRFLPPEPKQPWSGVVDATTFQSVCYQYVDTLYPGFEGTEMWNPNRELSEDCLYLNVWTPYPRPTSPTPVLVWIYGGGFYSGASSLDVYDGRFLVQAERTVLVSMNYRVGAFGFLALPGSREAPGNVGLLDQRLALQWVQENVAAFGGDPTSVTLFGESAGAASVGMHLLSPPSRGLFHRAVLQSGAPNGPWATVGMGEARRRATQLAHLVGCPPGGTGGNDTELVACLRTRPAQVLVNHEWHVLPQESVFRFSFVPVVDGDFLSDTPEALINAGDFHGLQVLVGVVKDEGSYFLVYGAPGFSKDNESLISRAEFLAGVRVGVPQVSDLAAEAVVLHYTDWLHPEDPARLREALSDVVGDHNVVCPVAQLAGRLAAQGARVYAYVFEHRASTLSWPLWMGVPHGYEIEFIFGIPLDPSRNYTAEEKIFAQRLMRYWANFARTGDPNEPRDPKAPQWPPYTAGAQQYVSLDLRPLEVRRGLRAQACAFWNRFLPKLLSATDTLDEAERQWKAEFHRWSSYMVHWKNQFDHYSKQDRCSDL
Sequence of Acetylcholinesterase (Electrophorus electricus, UniProt O42275) (O42275 whole entry): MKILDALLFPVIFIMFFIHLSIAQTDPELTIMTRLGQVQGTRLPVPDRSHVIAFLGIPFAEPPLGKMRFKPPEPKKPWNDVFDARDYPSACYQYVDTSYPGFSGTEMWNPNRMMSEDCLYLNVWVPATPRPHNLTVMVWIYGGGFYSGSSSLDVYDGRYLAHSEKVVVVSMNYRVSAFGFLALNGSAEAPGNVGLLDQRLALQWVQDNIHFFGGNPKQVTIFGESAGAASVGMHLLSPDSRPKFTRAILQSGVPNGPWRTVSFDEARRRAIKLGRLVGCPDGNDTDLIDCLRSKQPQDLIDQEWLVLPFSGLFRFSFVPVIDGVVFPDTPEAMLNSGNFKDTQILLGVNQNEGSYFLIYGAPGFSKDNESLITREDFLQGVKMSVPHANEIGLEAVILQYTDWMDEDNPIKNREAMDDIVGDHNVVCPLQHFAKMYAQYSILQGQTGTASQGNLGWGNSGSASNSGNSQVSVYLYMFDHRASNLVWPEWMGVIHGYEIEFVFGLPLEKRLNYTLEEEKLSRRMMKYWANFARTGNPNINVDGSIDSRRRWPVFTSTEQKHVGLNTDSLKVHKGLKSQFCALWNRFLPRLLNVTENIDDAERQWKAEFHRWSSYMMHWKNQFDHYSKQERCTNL
Sequence of Amyloid-beta precursor protein (Homo sapiens) (P05067 whole entry): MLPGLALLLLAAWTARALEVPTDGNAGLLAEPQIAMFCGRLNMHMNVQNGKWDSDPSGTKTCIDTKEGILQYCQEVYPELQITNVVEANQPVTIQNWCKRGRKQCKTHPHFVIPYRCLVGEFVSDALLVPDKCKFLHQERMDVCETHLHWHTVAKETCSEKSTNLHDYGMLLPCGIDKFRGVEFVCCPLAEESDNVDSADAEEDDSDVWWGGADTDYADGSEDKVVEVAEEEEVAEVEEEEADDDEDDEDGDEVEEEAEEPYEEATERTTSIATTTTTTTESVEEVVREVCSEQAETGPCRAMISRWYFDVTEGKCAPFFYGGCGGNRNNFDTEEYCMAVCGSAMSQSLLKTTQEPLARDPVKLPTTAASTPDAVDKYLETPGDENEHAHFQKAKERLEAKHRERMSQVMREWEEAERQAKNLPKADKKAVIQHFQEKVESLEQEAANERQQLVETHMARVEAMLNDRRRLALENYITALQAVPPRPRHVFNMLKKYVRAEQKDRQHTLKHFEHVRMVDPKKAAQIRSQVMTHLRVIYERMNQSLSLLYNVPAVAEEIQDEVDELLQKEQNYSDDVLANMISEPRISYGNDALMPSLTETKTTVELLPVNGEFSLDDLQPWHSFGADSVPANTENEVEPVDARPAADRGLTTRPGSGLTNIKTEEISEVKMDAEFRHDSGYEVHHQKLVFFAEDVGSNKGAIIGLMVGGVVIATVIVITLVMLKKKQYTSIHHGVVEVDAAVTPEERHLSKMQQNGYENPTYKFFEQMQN
Sequence of Acetylcholinesterase (Electrophorus electricus) (O42275 24-633 limits assumed): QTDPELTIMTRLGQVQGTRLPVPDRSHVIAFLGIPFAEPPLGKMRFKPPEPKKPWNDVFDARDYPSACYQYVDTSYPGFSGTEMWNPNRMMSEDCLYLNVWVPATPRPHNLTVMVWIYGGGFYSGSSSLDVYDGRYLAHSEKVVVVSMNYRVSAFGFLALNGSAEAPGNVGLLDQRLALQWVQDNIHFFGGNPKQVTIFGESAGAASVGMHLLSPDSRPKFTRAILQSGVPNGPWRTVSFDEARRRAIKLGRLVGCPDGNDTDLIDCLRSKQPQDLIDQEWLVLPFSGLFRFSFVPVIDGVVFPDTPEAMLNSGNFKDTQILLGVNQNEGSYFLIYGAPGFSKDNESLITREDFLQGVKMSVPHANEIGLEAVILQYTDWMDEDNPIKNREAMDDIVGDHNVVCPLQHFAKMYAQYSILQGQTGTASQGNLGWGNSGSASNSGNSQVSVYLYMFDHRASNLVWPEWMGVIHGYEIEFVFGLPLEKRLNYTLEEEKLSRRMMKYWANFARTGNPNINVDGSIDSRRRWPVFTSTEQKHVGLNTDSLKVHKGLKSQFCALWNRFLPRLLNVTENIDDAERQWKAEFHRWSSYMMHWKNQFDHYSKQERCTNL

As to `COc1cc2oc(-c3ccc(OCC(=O)NCCCNc4c5c(nc6cc(Cl)ccc46)CCCC5)cc3)cc(=O)c2c(OC)c1OC`, the pIC50 was 7.53 in data set [1] and 6.26 in data set [4]. In addition, the “fold change (Trolox equivalents (ORAC))” value in data set [2] came out at 0.62. Further, in data set [3], the Ratio IC50 stood at 13.9. In data set [5], the inhibition amounted to 25.6%.
Regarding `COc1cc2oc(-c3ccc(OCC(=O)NCCCCCNc4c5c(nc6cc(Cl)ccc46)CCCC5)cc3)cc(=O)c2c(OC)c1OC`, the pIC50 in [1] is 7.89; in data set [6], 8.16; in data set [4], 6.33. In [2], the “fold change (Trolox equivalents (ORAC))” value was found to be 0.55. Also, the inhibition entry in data set [7] is “Active”. Also, the Ratio IC50 in data set [3] stood at 36.2. For the same molecule, the viability at 5 µM in [8] was 45.3%. Further, in data set [9], the Papp at 100 ug/ml was determined as 7.92 ×10⁻⁶ cm/s. This molecule showed an inhibition in [5] of 33.8%.
As to `COc1cc2oc(-c3cccc(O)c3)cc(=O)c2c(OC)c1OC`, the pIC50 in [1] and in [4] was < 4.00 each time. For the same molecule, the “fold change (Trolox equivalents (ORAC))” value in data set [2] worked out at 3.6. Also, the inhibition in data set [5] worked out at 17.4%.
Turning to `COc1cc2oc(-c3ccc(OCC(=O)NCCCCNc4c5c(nc6cc(Cl)ccc46)CCCC5)cc3)cc(=O)c2c(OC)c1OC`, the results for the pIC50 in data set [1] and in data set [4] were 7.28 and 5.91, respectively. The “fold change (Trolox equivalents (ORAC))” value in data set [2] is 0.58. Moreover, in data set [3], the Ratio IC50 turned out to be 23.5. The inhibition in data set [5] came out at 30.3%.
On to `COc1cc2oc(-c3ccc(OCC(=O)NCCCCCCNc4c5c(nc6cc(Cl)ccc46)CCCC5)cc3)cc(=O)c2c(OC)c1OC`, for which the pIC50 in data set [1] was 7.38; in [6] it was 7.67; in data set [4], 6.49. Also, in [2], the “fold change (Trolox equivalents (ORAC))” value came out at 0.52. The Ratio IC50 in [3] was 10.3. In addition, the inhibition in data set [5] is 35.5%.
As to `COc1cc2oc(-c3cccc(OCC(=O)NCCCCCNc4c5c(nc6cc(Cl)ccc46)CCCC5)c3)cc(=O)c2c(OC)c1OC`, the values for the pIC50 in [1], in [6] and in [4] were 7.68, 7.76 and 6.54, respectively. Also, in data set [2], the “fold change (Trolox equivalents (ORAC))” value was determined as 0.53. Moreover, in data set [3], the Ratio IC50 turned out to be 12.7. The inhibition in [5] was 32.5%.
`Nc1c2c(nc3cc(Cl)ccc13)CCCC2`: the “fold change (FC)” value in data set [2] amounted to 0.17. Further, the pIC50 in [4] is 7.78.
Consider `COc1cc2oc(-c3cccc(OCC(=O)NCCCNc4c5c(nc6cc(Cl)ccc46)CCCC5)c3)cc(=O)c2c(OC)c1OC`, for which the pIC50 in data set [1] is 7.42; in data set [4], 6.09. Moreover, the “fold change (Trolox equivalents (ORAC))” value in [2] came out at 0.57. Also, the Ratio IC50 in [3] came to 15.4. Moreover, the inhibition in data set [5] stood at 30.6%.
Regarding `COc1cc2oc(-c3ccc(O)cc3)cc(=O)c2c(OC)c1OC`, the pIC50 in [1] and in data set [4] was < 4.00 each time. Also, the “fold change (Trolox equivalents (ORAC))” value in [2] is listed as 5.7. In data set [5], this molecule displayed an inhibition of 11.2%.
As for `COc1cc2oc(-c3cccc(OCC(=O)NCCCCCCNc4c5c(nc6cc(Cl)ccc46)CCCC5)c3)cc(=O)c2c(OC)c1OC`, the values for the pIC50 in [1], in data set [6] and in data set [4] were 7.33, 7.49 and 6.01, respectively. In addition, the “fold change (Trolox equivalents (ORAC))” value in data set [2] was 0.47. Also, in data set [3], the Ratio IC50 is 20.5. Moreover, the inhibition in data set [5] turned out to be 34.3%.
Regarding `COc1cc2oc(-c3cccc(OCC(=O)NCCCCNc4c5c(nc6cc(Cl)ccc46)CCCC5)c3)cc(=O)c2c(OC)c1OC`, the results for the negative logarithm of the IC50 (pIC50) in [1] and in [4] were 7.17 and 5.99, respectively. The “fold change (Trolox equivalents (ORAC))” value in data set [2] is 0.55. Moreover, in data set [3], the Ratio IC50 is 15. Further, the inhibition in [5] was found to be 31.8%.

For the origin of these results see ChEMBL document CHEMBL3400132, “Design, synthesis and evaluation of novel 5,6,7-trimethoxyflavone-6-chlorotacrine hybrids as potential multifunctional agents for the treatment of Alzheimer's disease” (Bioorg Med Chem Lett, 2015).
